Experimental data as given in patent US20150119363A1, “METHODS OF TREATING BACTERIAL INFECTIONS” (Rampex Pharmaceuticals, Inc., priority 2012, published 2015).

Key:
[1] = test system: E. coli EC1061 (NDM-1 CMY-6); assay: Aztreonam/Tigemonam MIC at various concentrations of BLI; assay type: cell-based; settings: Escherichia coli, read-out: Aztreonam MIC (μg/ml) in the presence of BLI
Experimental: MIC values for each bacterial strain were measured for each antimicrobial compound at various concentrations of each BLI. […]

[2] = test system: K. pneumoniae KP1081 (NDM-1, CMY-6, SHV-11, CTX-M-15, TEM-1); assay: as above; assay type: cell-based; settings: Klebsiella pneumoniae, read-out: Aztreonam MIC (μg/ml) in the presence of BLI
Experimental: MIC values for each bacterial strain were measured for each antimicrobial compound at various concentrations of each BLI.

EC1007 KPC-3 = assay: Dose titration biapenem potentiation assay (MPC1); assay type: cell-based, Escherichia coli; settings: biapenem 1 μg/mL
Experimental: (§1) The potency and spectrum of β-lactamase inhibitors is also determined by assessing their biapenem potentiation activity in a dose titration potentiation assay using strains expressing serine carbapemenases (such as KPC). The potentiation effect is observed as the ability of BLI compounds to inhibit growth in the presence of sub-inhibitory concentration of biapenem. […] Biapenem is present in the test medium at 1 μg/mL. Compounds tested at the highest concentration of 40 μg/mL. […] Table 5 summarizes BLI potency of biapenem potentiation (MPC1). Biapenem MIC for each strain is also shown.

ECL1004 NMC-A = assay: Dose titration biapenem potentiation assay (MPC1); assay type: cell-based, Enterobacter cloacae; settings: biapenem 1 μg/mL
Experimental: as §1

KP1004 KPC-2 = assay: Dose titration biapenem potentiation assay (MPC1); assay type: cell-based, Klebsiella pneumoniae; settings: biapenem 1 μg/mL
Experimental: as §1

KP1008 KPC-2 = assay: Dose titration biapenem potentiation assay (MPC1); assay type: cell-based, Klebsiella pneumoniae; settings: biapenem 1 μg/mL
Experimental: as §1

| MIC [1] | MIC [2] | Compound | BPM MPC1 EC1007 KPC-3 (EC1007 KPC-3) | BPM MPC1 ECL1004 NMC-A (ECL1004 NMC-A) | BPM MPC1 KP1004 KPC-2 (KP1004 KPC-2) | BPM MPC1 KP1008 KPC-2 (KP1008 KPC-2) |
| --- | --- | --- | --- | --- | --- | --- |
| 16 µg/mL | 256 µg/mL | C[C@H]1[C@H](NC(=O)/C(=N\OC(C)(C)C(=O)O)c2csc(N)n2)C(=O)N1S(=O)(=O)O [Aztreonam, reference compound] |  |  |  |  |
|  |  | NC1(CC(=O)N[C@H]2CC[C@@H](CC(=O)O)OB2O)CCCCC1 [Compound 51, 2-((3R,6S)-3-(2-(1-aminocyclohexyl)acetamido)-2-hydroxy-1,2-oxaborinan-6-yl)acetic acid] | X (X = MPC1 of less than 1 μg/mL.) | Y (Y = MPC1 of 1 μg/mL to 5 μg/mL.) | X (X = MPC1 of less than 1 μg/mL.) | X (X = MPC1 of less than 1 μg/mL.) |
|  |  | O=C(O)C[C@@H]1CC[C@H](NC(=O)C[C@H]2CCCCN2)B(O)O1 [Compound 52, 2-((3R,6S)-2-hydroxy-3-(2-((R)-piperidin-2-yl)acetamido)-1,2-oxaborinan-6-yl)acetic acid] | X (X = MPC1 of less than 1 μg/mL.) | Y (Y = MPC1 of 1 μg/mL to 5 μg/mL.) | X (X = MPC1 of less than 1 μg/mL.) | X (X = MPC1 of less than 1 μg/mL.) |
|  |  | O=C(O)C[C@@H]1CC[C@H](NC(=O)C[C@@H]2CCCCN2)B(O)O1 [Compound 53, 2-((3R,6S)-2-hydroxy-3-(2-((S)-piperidin-2-yl)acetamido)-1,2-oxaborinan-6-yl)acetic acid] | X (X = MPC1 of less than 1 μg/mL.) | Y (Y = MPC1 of 1 μg/mL to 5 μg/mL.) | X (X = MPC1 of less than 1 μg/mL.) | X (X = MPC1 of less than 1 μg/mL.) |
|  |  | O=C(O)C[C@@H]1CC[C@H](NC(=O)Cn2ccnc2-c2ccccc2)B(O)O1 [Compound 54, 2-((3R,6S)-2-hydroxy-3-(2-(2-phenyl-1H-imidazol-1-yl)acetamido)-1,2-oxaborinan-6-yl)acetic acid] | X (X = MPC1 of less than 1 μg/mL.) | X (X = MPC1 of less than 1 μg/mL.) | X (X = MPC1 of less than 1 μg/mL.) | X (X = MPC1 of less than 1 μg/mL.) |
|  |  | Cc1nc2ccccc2n1CCC(=O)N[C@H]1CC[C@@H](CC(=O)O)OB1O [Compound 55] | X (X = MPC1 of less than 1 μg/mL.) | X (X = MPC1 of less than 1 μg/mL.) | X (X = MPC1 of less than 1 μg/mL.) | X (X = MPC1 of less than 1 μg/mL.) |
|  |  | O=C(O)C[C@@H]1CC[C@H](NC(=O)c2ccc(Cn3cnnn3)cc2)B(O)O1 [Compound 56, 2-((3R,6S)-3-(4-((1H-tetrazol-1-yl)methyl)benzamido)-2-hydroxy-1,2-oxaborinan-6-yl)acetic acid] | X (X = MPC1 of less than 1 μg/mL.) | X (X = MPC1 of less than 1 μg/mL.) | X (X = MPC1 of less than 1 μg/mL.) | X (X = MPC1 of less than 1 μg/mL.) |
|  |  | O=C(O)C[C@@H]1CC[C@H](NC(=O)Cc2ccccn2)B(O)O1 [Compound 57, 2-((3R,6S)-2-hydroxy-3-(2-(pyridin-2-yl)acetamido)-1,2-oxaborinan-6-yl)acetic acid] | X (X = MPC1 of less than 1 μg/mL.) | X (X = MPC1 of less than 1 μg/mL.) | X (X = MPC1 of less than 1 μg/mL.) | X (X = MPC1 of less than 1 μg/mL.) |
|  |  | C[C@]1(Cn2ccnn2)[C@H](C(=O)N[C@H]2CC[C@@H](CC(=O)O)OB2O)N2C(=O)C[C@H]2S1(=O)=O [Compound 59, 2-[(3R,6S)-2-hydroxy-3-[(2S,3S,5R)-3-methyl-4,4,7-trioxo-3-(1H-1,2,3-triazol-1-ylmethyl)-4λ^6-thia-1-azabicyclo[3.2.0]heptane-2-amido]-1,2-oxaborinan-6-yl]acetic acid] | X (X = MPC1 of less than 1 μg/mL.) | X (X = MPC1 of less than 1 μg/mL.) | Y (Y = MPC1 of 1 μg/mL to 5 μg/mL.) | X (X = MPC1 of less than 1 μg/mL.) |
|  |  | O=C(O)C[C@@H]1CC[C@H](NC(=O)CCc2nnc(-c3ccccc3)o2)B(O)O1 [Compound 60, 2-((3R,6S)-2-hydroxy-3-(3-(5-phenyl-1,3,4-oxadiazol-2-yl)propanamido)-1,2-oxaborinan-6-yl)acetic acid] | X (X = MPC1 of less than 1 μg/mL.) | X (X = MPC1 of less than 1 μg/mL.) | X (X = MPC1 of less than 1 μg/mL.) | X (X = MPC1 of less than 1 μg/mL.) |
|  |  | Nc1nc(/C(=N/OCc2cc(=O)c(O)cn2O)C(=O)N[C@H]2CC[C@@H](CC(=O)O)OB2O)cs1 [Compound 62, 2-((3R)-3-((Z)-2-(2-aminothiazol-4-yl)-2-((1,5-dihydroxy-4-oxo-1,4-dihydropyridin-2-yl)methoxyimino)acetamido)-2-hydroxy-1,2-oxaborinan-6-yl)acetic acid] | X (X = MPC1 of less than 1 μg/mL.) | X (X = MPC1 of less than 1 μg/mL.) | X (X = MPC1 of less than 1 μg/mL.) | X (X = MPC1 of less than 1 μg/mL.) |
|  |  | O=C(O)CC1CCC[C@H](NC(=O)Cc2cccs2)B(O)O1 (stereo partly drawn) [Compound 63, 2-((3R)-2-hydroxy-3-(2-(thiophen-2-yl)acetamido)-1,2-oxaborepan-7-yl)acetic acid] | Y (Y = MPC1 of 1 μg/mL to 5 μg/mL.) | Y (Y = MPC1 of 1 μg/mL to 5 μg/mL.) | Y (Y = MPC1 of 1 μg/mL to 5 μg/mL.) | X (X = MPC1 of less than 1 μg/mL.) |
|  |  | O=C(O)CC1C=CC[C@H](NC(=O)Cc2cccs2)B(O)O1 (stereo partly drawn) [Compound 64, 2-((3R)-2-hydroxy-3-(2-(thiophen-2-yl)acetamido)-2,3,4,7-tetrahydro-1,2-oxaborepin-7-yl)acetic acid] | X (X = MPC1 of less than 1 μg/mL.) | X (X = MPC1 of less than 1 μg/mL.) | Y (Y = MPC1 of 1 μg/mL to 5 μg/mL.) | X (X = MPC1 of less than 1 μg/mL.) |
|  |  | CCOC(=O)C[C@@H]1CC[C@H](NC(=O)Cc2cccs2)B(O)O1 [Compound 65, ethyl 2-((3R,6S)-2-hydroxy-3-(2-(thiophen-2-yl)acetamido)-1,2-oxaborinan-6-yl)acetate] | Y (Y = MPC1 of 1 μg/mL to 5 μg/mL.) | Z (Z = MPC1 of greater than 5 μg/mL.) | Y (Y = MPC1 of 1 μg/mL to 5 μg/mL.) | X (X = MPC1 of less than 1 μg/mL.) |
|  |  | O=C(O)C[C@@H]1CC[C@H](NC(=O)Cc2cc(F)cc(F)c2)B(O)O1 [Compound 66, 2-((3R,6S)-3-(2-(3,5-difluorophenyl)acetamido)-2-hydroxy-1,2-oxaborinan-6-yl)acetic acid] | X (X = MPC1 of less than 1 μg/mL.) | X (X = MPC1 of less than 1 μg/mL.) | X (X = MPC1 of less than 1 μg/mL.) | X (X = MPC1 of less than 1 μg/mL.) |
